The assay relates to RIN5F (Rat Insulinoma) cells. Kind of assay: In vitro glucose-dependent insulin secretion (RIN5F cell assay). The class given is cell-based. Conditions: 16.7-mM glucose load, n = 3, mean ± S.D. The procedure: RIN5F (Rat Insulinoma) cells were cultured in RPMI 1640 medium supplemented with sodium pyruvate (1 mM) HEPES and Glucose (4.5 g/L) in a humidified incubator (5% CO2), at 37° C. After trypsinization, RIN5F cells were seeded at a concentration of 0.2×10^6 cells per well, in 12 well plates. The cells were grown overnight to 80% confluence and insulin secretion experiments were performed as follows (Montrose-Rafizadeh C., et al., Mol. Cell. Endo. 1997, 130, 109.; Wang, X., et al., Endocrinology 2001, 5, 1820).
The cells were washed once with PBS solution followed by 40 min. incubation in fresh Krebs-Ringer Balanced Buffer containing NaCl (115 mmol/L), KCl (4.7 mmol/L), CaCl2 (1.28 mmol/L), MgSO4.7H2O (1.2 mmol/L), KH2PO4 (1.2 mmol/L), NaHCO3 (10 mmol/L) and HEPES (25 mmol/L), containing Glucose (1.1 mM) and B.S.A (0.5%), pH 7.4. The buffer was replaced after 40 min. and the cells were incubated (37° C.) with the test peptidomimetics, at different concentration, for 30 min., both in the presence (16.7 mM) and absence (0 mM) of glucose load. The supernatant was collected and the insulin amount was measured by ultra sensitive Rat insulin ELISA kit (Crystal Chem, IL). The protein was estimated in the supernatant using Bicinchoninic Acid kit, according to the manufacturer's protocol (Sigma Aldrich, MO). The total insulin content obtained in Pico-gram (pg) was divided with the total protein (μg) in order to normalize for differences in cell density between wells.

Where a SMILES comes first, the peptide text is derived from it. [ ]: non-standard residue; d: D form. ξ: configuration not given here. ξαMeBip(2'-Et,4'-OMe) = CCc1cc(OC)ccc1-c1ccc(CC(C)(N)C(=O)O)cc1; ξBip(2'-Et-4'-OMe) = CCc1cc(OC)ccc1-c1ccc(CC(N)C(=O)O)cc1; ξαMePhe(2,6-F2) = CC(N)(Cc1c(F)cccc1F)C(=O)O; ξαMe(hhPhe) = CC(N)(CCCc1ccccc1)C(=O)O; ξαMePhe(2-F) = CC(N)(Cc1ccccc1F)C(=O)O; ξhhPhe = NC(CCCc1ccccc1)C(=O)O; ξαMeD = CC(N)(CC(=O)O)C(=O)O; ξαMeP = CC1(C(=O)O)CCCN1; Ac5c = NC1(C(=O)O)CCCC1; ξαMeS = CC(N)(CO)C(=O)O; Ac3c = NC1(C(=O)O)CC1; Aib = CC(C)(N)C(=O)O

The values that follow come from patent US20120264685A1 (priority 2009, published 2012).

Take `CCc1cc(OC)ccc1-c1ccc(CC(C)(NC(=O)[C@H](CC(=O)O)NC(=O)[C@H](CO)NC(=O)[C@@H](NC(=O)[C@H](Cc2ccccc2)NC(=O)[C@@H](NC(=O)CNC(=O)[C@H](CCC(N)=O)NC(=O)[C@H](CO)NC(=O)[C@H](Cc2c[nH]cn2)NC(=O)[C@@H](N)C(C)C)[C@@H](C)O)[C@@H](C)O)C(=O)NC(CCCc2ccccc2)C(N)=O)cc1` (stereo partly drawn) [compound 5] (H-VHSQGTFTSD[ξαMeBip(2'-Et,4'-OMe)][ξhhPhe]-NH2): the “Insulin secretion” value is, setting by setting: (0.1 nM test compd.) 12.1 ± 0.51 pg/µg/h; (1 nM test compd.) 14.1 ± 0.19 pg/µg/h; (10 nM test compd.) 28.1 ± 0.29 pg/µg/h.

For `CCc1cc(OC)ccc1-c1ccc(CC(C)(NC(=O)[C@H](CC(=O)O)NC(=O)[C@H](CO)NC(=O)[C@@H](NC(=O)[C@H](Cc2ccccc2)NC(=O)[C@@H](NC(=O)CNC(=O)[C@H](CCC(N)=O)NC(=O)C2(C)CCCN2C(=O)[C@H](Cc2c[nH]cn2)NC(=O)[C@@H](N)C(C)C)[C@@H](C)O)[C@@H](C)O)C(=O)NC(CCCc2ccccc2)C(N)=O)cc1` (stereo partly drawn) [compound 8] (H-VH[ξαMeP]QGTFTSD[ξαMeBip(2'-Et,4'-OMe)][ξhhPhe]-NH2), the “Insulin secretion” value reads like this: (0.1 nM test compd.) 12.6 ± 0.25 pg/µg/h; (1 nM test compd.) 15.3 ± 0.31 pg/µg/h; (10 nM test compd.) 29.7 ± 0.48 pg/µg/h.

For the compound `CCc1cc(OC)ccc1-c1ccc(CC(C)(NC(=O)[C@H](CC(=O)O)NC(=O)[C@H](CO)NC(=O)[C@@H](NC(=O)[C@H](Cc2ccccc2)NC(=O)[C@@H](NC(=O)CNC(=O)[C@H](CCC(N)=O)NC(=O)C2(NC(=O)[C@H](Cc3c[nH]cn3)NC(=O)[C@@H](N)C(C)C)CC2)[C@@H](C)O)[C@@H](C)O)C(=O)NC(CCCc2ccccc2)C(N)=O)cc1` (stereo partly drawn) [compound 10] (H-VH[Ac3c]QGTFTSD[ξαMeBip(2'-Et,4'-OMe)][ξhhPhe]-NH2), the “Insulin secretion” value reads like this: (0.1 nM test compd.) 12.0 ± 0.14 pg/µg/h; (1 nM test compd.) 14.3 ± 0.12 pg/µg/h; (10 nM test compd.) 27.8 ± 0.32 pg/µg/h.

Consider `CCc1cc(OC)ccc1-c1ccc(CC(C)(NC(=O)[C@H](CC(=O)O)NC(=O)[C@H](CO)NC(=O)[C@@H](NC(=O)[C@H](Cc2ccccc2)NC(=O)[C@@H](NC(=O)CNC(=O)[C@H](CCC(=O)O)NC(=O)C2(NC(=O)[C@H](Cc3c[nH]cn3)NC(=O)[C@@H](N)C(C)C)CCCC2)[C@@H](C)O)[C@@H](C)O)C(=O)NC(CCCc2ccccc2)C(N)=O)cc1` (stereo partly drawn) [compound 15] (H-VH[Ac5c]EGTFTSD[ξαMeBip(2'-Et,4'-OMe)][ξhhPhe]-NH2), for which the “Insulin secretion” value runs as follows: (0.1 nM test compd.) 15.3 ± 0.19 pg/µg/h; (1 nM test compd.) 21.2 ± 0.11 pg/µg/h; (10 nM test compd.) 35.5 ± 0.19 pg/µg/h.

Take `CCc1cc(OC)ccc1-c1ccc(CC(C)(NC(=O)[C@H](CC(=O)O)NC(=O)[C@H](CO)NC(=O)[C@@H](NC(=O)C(C)(Cc2ccccc2F)NC(=O)[C@@H](NC(=O)CNC(=O)[C@H](CCC(N)=O)NC(=O)C2(C)CCCN2C(=O)[C@H](Cc2c[nH]cn2)NC(=O)[C@@H](N)C(C)C)[C@@H](C)O)[C@@H](C)O)C(=O)NC(CCCc2ccccc2)C(N)=O)cc1` (stereo partly drawn) [compound 20] (H-VH[ξαMeP]QGT[ξαMePhe(2-F)]TSD[ξαMeBip(2'-Et,4'-OMe)][ξhhPhe]-NH2): the “Insulin secretion” value is, setting by setting: (0.1 nM test compd.) 11.1 ± 0.12 pg/µg/h; (1 nM test compd.) 13.1 ± 0.13 pg/µg/h; (10 nM test compd.) 19.0 ± 0.16 pg/µg/h.

Take `CCc1cc(OC)ccc1-c1ccc(CC(C)(NC(=O)[C@H](CC(=O)O)NC(=O)[C@H](CO)NC(=O)[C@@H](NC(=O)C(C)(Cc2c(F)cccc2F)NC(=O)[C@@H](NC(=O)CNC(=O)[C@H](CCC(N)=O)NC(=O)[C@H](CO)NC(=O)[C@H](Cc2c[nH]cn2)NC(=O)[C@@H](N)C(C)C)[C@@H](C)O)[C@@H](C)O)C(=O)NC(CCCc2ccccc2)C(N)=O)cc1` (stereo partly drawn) [compound 25] (H-VHSQGT[ξαMePhe(2,6-F2)]TSD[ξαMeBip(2'-Et,4'-OMe)][ξhhPhe]-NH2): the “Insulin secretion” value (0.1 nM test compd.) is 12.6 ± 0.20 pg/µg/h, the “Insulin secretion” value (1 nM test compd.) amounted to 15.9 ± 0.31 pg/µg/h and the “Insulin secretion” value (10 nM test compd.) was 28.4 ± 0.11 pg/µg/h.

Regarding `CCc1cc(OC)ccc1-c1ccc(CC(C)(NC(=O)C(C)(CC(=O)O)NC(=O)[C@H](CO)NC(=O)[C@@H](NC(=O)[C@H](Cc2ccccc2)NC(=O)[C@@H](NC(=O)CNC(=O)[C@H](CCC(N)=O)NC(=O)C2(C)CCCN2C(=O)[C@H](Cc2c[nH]cn2)NC(=O)[C@@H](N)C(C)C)[C@@H](C)O)[C@@H](C)O)C(=O)NC(CCCc2ccccc2)C(N)=O)cc1` (stereo partly drawn) [compound 60] (H-VH[ξαMeP]QGTFTS[ξαMeD][ξαMeBip(2'-Et,4'-OMe)][ξhhPhe]-NH2), the “Insulin secretion” value by setting is: (0.1 nM test compd.) 15.6 ± 0.33 pg/µg/h; (1 nM test compd.) 21.8 ± 0.16 pg/µg/h; (10 nM test compd.) 35.6 ± 0.26 pg/µg/h.

On to `CCc1cc(OC)ccc1-c1ccc(CC(C)(NC(=O)C(C)(CC(=O)O)NC(=O)[C@H](CO)NC(=O)[C@@H](NC(=O)C(C)(Cc2ccccc2F)NC(=O)[C@@H](NC(=O)CNC(=O)[C@H](CCC(N)=O)NC(=O)[C@H](C)NC(=O)[C@H](Cc2c[nH]cn2)NC(=O)[C@@H](N)C(C)C)[C@@H](C)O)[C@@H](C)O)C(=O)NC(CCCc2ccccc2)C(N)=O)cc1` (stereo partly drawn) [compound 66] (H-VHAQGT[ξαMePhe(2-F)]TS[ξαMeD][ξαMeBip(2'-Et,4'-OMe)][ξhhPhe]-NH2), for which the “Insulin secretion” value by setting is: (0.1 nM test compd.) 16.5 ± 0.12 pg/µg/h; (1 nM test compd.) 22.7 ± 0.17 pg/µg/h; (10 nM test compd.) 36.5 ± 0.05 pg/µg/h.

On to `CCc1cc(OC)ccc1-c1ccc(CC(C)(NC(=O)C(C)(CC(=O)O)NC(=O)[C@H](CO)NC(=O)[C@@H](NC(=O)C(C)(Cc2ccccc2F)NC(=O)[C@@H](NC(=O)CNC(=O)[C@H](CCC(=O)O)NC(=O)C(C)(C)NC(=O)[C@H](Cc2c[nH]cn2)NC(=O)[C@@H](N)C(C)C)[C@@H](C)O)[C@@H](C)O)C(=O)NC(CCCc2ccccc2)C(N)=O)cc1` (stereo partly drawn) [compound 71] (H-VH[Aib]EGT[ξαMePhe(2-F)]TS[ξαMeD][ξαMeBip(2'-Et,4'-OMe)][ξhhPhe]-NH2), for which the “Insulin secretion” value is, setting by setting: (0.1 nM test compd.) 15.6 ± 0.30 pg/µg/h; (1 nM test compd.) 21.8 ± 0.11 pg/µg/h; (10 nM test compd.) 35.6 ± 0.20 pg/µg/h.

Consider `CCc1cc(OC)ccc1-c1ccc(CC(C)(NC(=O)C(C)(CC(=O)O)NC(=O)[C@H](CO)NC(=O)[C@@H](NC(=O)C(C)(Cc2c(F)cccc2F)NC(=O)[C@@H](NC(=O)CNC(=O)[C@H](CCC(=O)O)NC(=O)[C@H](C)NC(=O)[C@H](Cc2c[nH]cn2)NC(=O)[C@@H](N)C(C)C)[C@@H](C)O)[C@@H](C)O)C(=O)NC(CCCc2ccccc2)C(N)=O)cc1` (stereo partly drawn) [compound 78] (H-VHAEGT[ξαMePhe(2,6-F2)]TS[ξαMeD][ξαMeBip(2'-Et,4'-OMe)][ξhhPhe]-NH2), for which the “Insulin secretion” value is, setting by setting: (0.1 nM test compd.) 16.3 ± 0.15 pg/µg/h; (1 nM test compd.) 22.4 ± 0.21 pg/µg/h; (10 nM test compd.) 36.2 ± 0.11 pg/µg/h.

As for `CCc1cc(OC)ccc1-c1ccc(CC(NC(=O)[C@H](CC(=O)O)NC(=O)[C@H](CO)NC(=O)[C@@H](NC(=O)[C@H](Cc2ccccc2)NC(=O)[C@@H](NC(=O)CNC(=O)[C@H](CCC(N)=O)NC(=O)C2(NC(=O)[C@H](Cc3c[nH]cn3)NC(=O)[C@@H](N)C(C)C)CCCC2)[C@@H](C)O)[C@@H](C)O)C(=O)NC(C)(CCCc2ccccc2)C(N)=O)cc1` (stereo partly drawn) [compound 85] (H-VH[Ac5c]QGTFTSD[ξBip(2'-Et-4'-OMe)][ξαMe(hhPhe)]-NH2), the “Insulin secretion” value was 12.1 ± 0.52 pg/µg/h (0.1 nM test compd.), 14.1 ± 0.16 pg/µg/h (1 nM test compd.) and 28.0 ± 0.36 pg/µg/h (10 nM test compd.).

Regarding `CCc1cc(OC)ccc1-c1ccc(CC(NC(=O)[C@H](CC(=O)O)NC(=O)[C@H](CO)NC(=O)[C@@H](NC(=O)C(C)(Cc2c(F)cccc2F)NC(=O)[C@@H](NC(=O)CNC(=O)[C@H](CCC(=O)O)NC(=O)[C@H](CO)NC(=O)[C@H](Cc2c[nH]cn2)NC(=O)[C@@H](N)C(C)C)[C@@H](C)O)[C@@H](C)O)C(=O)NC(C)(CCCc2ccccc2)C(N)=O)cc1` (stereo partly drawn) [compound 103] (H-VHSEGT[ξαMePhe(2,6-F2)]TSD[ξBip(2'-Et-4'-OMe)][ξαMe(hhPhe)]-NH2), the “Insulin secretion” value is, setting by setting: (0.1 nM test compd.) 12.3 ± 0.33 pg/µg/h; (1 nM test compd.) 14.1 ± 0.36 pg/µg/h; (10 nM test compd.) 28.0 ± 0.16 pg/µg/h.

On to `CCc1cc(OC)ccc1-c1ccc(CC(NC(=O)C(C)(CC(=O)O)NC(=O)C(C)(CO)NC(=O)[C@@H](NC(=O)C(C)(Cc2ccccc2F)NC(=O)[C@@H](NC(=O)CNC(=O)[C@H](CCC(=O)O)NC(=O)[C@H](CO)NC(=O)[C@H](Cc2c[nH]cn2)NC(=O)[C@@H](N)C(C)C)[C@@H](C)O)[C@@H](C)O)C(=O)NC(C)(CCCc2ccccc2)C(N)=O)cc1` (stereo partly drawn) [compound 119] (H-VHSEGT[ξαMePhe(2-F)]T[ξαMeS][ξαMeD][ξBip(2'-Et-4'-OMe)][ξαMe(hhPhe)]-NH2), for which the “Insulin secretion” value by setting is: (0.1 nM test compd.) 12.4 ± 0.22 pg/µg/h; (1 nM test compd.) 15.2 ± 0.32 pg/µg/h; (10 nM test compd.) 29.6 ± 0.50 pg/µg/h.
